Measurements as given in publication PMC11445181 (Frontiers in Plant Science, 2024).

Molecular target: T1, LcCOMT (Conioselinum anthriscoides, UniProt A0A0K1YW34)
T1 construct: full-length cDNA in pET28a, His-tagged, E. coli BL21 (DE3), Ni-agarose purified; homodimer (N-terminal dimerization domain)
T1 sequence (A0A0K1YW34 1-362): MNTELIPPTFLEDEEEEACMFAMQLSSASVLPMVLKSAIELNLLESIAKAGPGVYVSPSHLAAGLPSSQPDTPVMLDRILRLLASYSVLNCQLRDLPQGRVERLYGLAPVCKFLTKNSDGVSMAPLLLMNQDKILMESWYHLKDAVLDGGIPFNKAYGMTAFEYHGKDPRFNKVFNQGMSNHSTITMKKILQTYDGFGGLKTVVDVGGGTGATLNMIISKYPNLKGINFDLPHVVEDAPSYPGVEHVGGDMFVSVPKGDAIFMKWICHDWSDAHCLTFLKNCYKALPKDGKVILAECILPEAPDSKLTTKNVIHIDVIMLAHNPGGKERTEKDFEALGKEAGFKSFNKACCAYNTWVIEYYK
Assay: inhibition of N-acetylserotonin methylation
Format: biochemical
Details: 2.0 mM N-acetylserotonin; caffeic acid is itself a substrate (competing substrate)

% reduction in activity at 1.0 mM: 31.80%
Structure (SMILES): O=C(O)/C=C/c1ccc(O)c(O)c1 [caffeic acid]
